Activity calls are given as the source filed them.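 How the source made its calls: active means caspase-3 cutting of the mutant autophagy protein ATG16L1 lowered by over half at 20 µM; inactive means the rest.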
Biological target: Autophagy-related protein 16-1 (Homo sapiens) (UniProt Q676U5)
Test: blockers of caspase-3 processing of ATG16L1 variant – biochemical, AlphaLISA, recombinant protein, with or without FKBP12, dose response (AID 1963956)
Conditions: recombinant ATG16L1 T300A + caspase-3, AlphaLISA

Sequence of Autophagy-related protein 16-1 (Homo sapiens) (Q676U5 whole entry T300A, looked up): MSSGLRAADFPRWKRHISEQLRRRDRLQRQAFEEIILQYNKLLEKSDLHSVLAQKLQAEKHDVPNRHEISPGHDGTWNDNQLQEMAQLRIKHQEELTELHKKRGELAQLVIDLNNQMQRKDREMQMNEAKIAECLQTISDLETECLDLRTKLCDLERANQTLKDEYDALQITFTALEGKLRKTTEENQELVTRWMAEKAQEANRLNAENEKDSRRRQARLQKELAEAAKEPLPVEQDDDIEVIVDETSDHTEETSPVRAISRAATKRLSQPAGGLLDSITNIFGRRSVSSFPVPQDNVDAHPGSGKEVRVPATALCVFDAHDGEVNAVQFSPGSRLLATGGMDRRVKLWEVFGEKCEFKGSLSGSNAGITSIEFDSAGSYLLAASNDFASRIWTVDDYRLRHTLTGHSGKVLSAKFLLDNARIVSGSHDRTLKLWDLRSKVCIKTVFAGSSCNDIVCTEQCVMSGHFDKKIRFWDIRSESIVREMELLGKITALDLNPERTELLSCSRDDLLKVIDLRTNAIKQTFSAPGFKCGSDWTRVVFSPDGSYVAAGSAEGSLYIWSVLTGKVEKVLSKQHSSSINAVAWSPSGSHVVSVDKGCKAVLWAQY

| SMILES | outcome (without FKBP12) | other results |
| --- | --- | --- |
| CCC(C)(C)C(=O)C(=O)N1CCCC[C@H]1C(=O)N[C@H](CCc1ccc(OC)cc1)C(=O)N1[C@@H]2CC[C@H]1CC(Nc1nc(NCCc3ccccc3)nc(N3CCn4ncnc4C3)n1)C2 (some centres not stated) | inactive | outcome (with FKBP12): inactive |
| CCC(C)(C)C(=O)C(=O)N1CCCC[C@H]1C(=O)N[C@H](CCc1ccc(OC)cc1)C(=O)N1[C@@H]2CC[C@H]1CC(Nc1nc(NCCc3sc(N)nc3C)nc(N3CCn4ncnc4C3)n1)C2 (some centres not stated) |  | EC50 (with FKBP12): 10.8 µM; EC50 (without FKBP12): 12.1 µM |
| CCC(C)(C)C(=O)C(=O)N1CCCC[C@H]1C(=O)N[C@H](CCc1ccc(OC)cc1)C(=O)N1[C@@H]2CC[C@H]1CC(NC(C)=O)C2 (some centres not stated) | inactive |  |
| CC(=O)N1[C@@H]2CC[C@H]1CC(Nc1nc(NCCc3sc(N)nc3C)nc(N3CCn4ncnc4C3)n1)C2 (some centres not stated) | inactive | outcome (with FKBP12): inactive |
| CCC(C)(C)C(=O)C(=O)N1CCCC[C@H]1C(=O)N[C@H](CCc1ccc(OC)cc1)C(=O)N1[C@@H]2CC[C@H]1CC(Nc1nc(NCCc3sc(N)nc3C)nc(N(C)Cc3nnc4n3CCC4)n1)C2 (some centres not stated) | inactive |  |
| CCC(C)(C)C(=O)C(=O)N1CCCC[C@H]1C(=O)N[C@H](CCc1ccc(OC)cc1)C(=O)N1CC[C@H](Nc2nc(NCCc3sc(N)nc3C)nc(N(C)Cc3nnc4n3CCC4)n2)C1 | inactive |  |

Now from value to molecule, other results behind:

| outcome (without FKBP12) | SMILES | other results |
| --- | --- | --- |
| inactive | CCC(C)(C)C(=O)C(=O)N1CCCC[C@H]1C(=O)N[C@H](CCc1ccc(OC)cc1)C(=O)N1[C@@H]2CC[C@H]1CC(Nc1nc(NCCc3sc(N)nc3C)nc(NCCn3cnc4ccccc43)n1)C2 (some centres not stated) |  |
| inactive | CCC(C)(C)C(=O)C(=O)N1CCCC[C@H]1C(=O)N[C@H](CCc1ccc(OC)cc1)C(=O)N1[C@@H]2CC[C@H]1CC(Nc1nc(NCCc3sc(N)nc3C)nc(NCc3ccnc(CO)c3)n1)C2 (some centres not stated) |  |
| inactive | CCC(C)(C)C(=O)C(=O)N1CCCC[C@H]1C(=O)N[C@H](CCc1ccc(OC)cc1)C(=O)N1CC(Nc2nc(NCCc3sc(N)nc3C)nc(NCCn3cnc4ccccc43)n2)C1 |  |
